Measured values reported in PubChem BioAssay AID248 (DTP/NCI, 2004).
Several values for one entry are separate records, joined by “and”; a condition that tells them apart may be missing. Equal entries are not always repeated. Toxic doses and inconclusive results are not listed.

Test system: L1210 leukemia ip in BDF1 mice, survival T/C
Assay: NCI In Vivo Anticancer Drug Screen. Data for tumor model L1210 Leukemia (intraperitoneal) in B6D2F1 (BDF1) mice
Settings: endpoint: mean survival time, higher = longer survival
Procedure, shortened: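 Survival endpoint. Drug-treated group vs vehicle group, expressed as T divided by C. Tumor passaged by transplantation.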

[1] = dose: 200.0 mg/kg/injection, schedule: Q01DX001 (ip), vehicle: saline

Compound: C[n+]1ccc(Nc2ccc(NC(=O)c3ccc(Nc4cc[n+](C)c5ccc(N)cc45)cc3N)cc2)cc1
- T/C (dose: 0.25 mg/kg/injection, schedule: Q01DX005 (iv), vehicle: water): 104 % of control
- T/C (dose: 0.5 mg/kg/injection, schedule: Q01DX005 (iv), vehicle: water): 97 % of control and 107 % of control
- T/C (dose: 0.5 mg/kg/injection, schedule: Q01DX009 (ip), vehicle: water): 113 % of control
- T/C (dose: 0.5 mg/kg/injection, schedule: Q03HX008 (ip), vehicle: water): 115 % of control
- T/C (dose: 0.5 mg/kg/injection, schedule: Q03HX016 (ip), vehicle: water): 121 % of control
- T/C (dose: 0.5 mg/kg/injection, schedule: Q03HX024 (sc), vehicle: water): 104 % of control
- T/C (dose: 0.5 mg/kg/injection, schedule: Q04DX003 (iv), vehicle: water): 104 % of control
- T/C (dose: 0.78 mg/kg/injection, schedule: Q01DX009 (ip), vehicle: saline): 100 % of control
- T/C (dose: 1.0 mg/kg/injection, schedule: Q01DX005 (iv), vehicle: water): 104 % of control and 105 % of control
- T/C (dose: 1.0 mg/kg/injection, schedule: Q01DX009 (ip), vehicle: water): 118 % of control
- T/C (dose: 1.0 mg/kg/injection, schedule: Q01DX009 (oral), vehicle: water): 109 % of control
- T/C (dose: 1.0 mg/kg/injection, schedule: Q01DX009 (sc), vehicle: saline with Tween-80): 101 % of control
- T/C (dose: 1.0 mg/kg/injection, schedule: Q01DX009 (sc), vehicle: water): 106 % of control
- T/C (dose: 1.0 mg/kg/injection, schedule: Q03HX016 (ip), vehicle: water): 159 % of control
- T/C (dose: 1.0 mg/kg/injection, schedule: Q03HX024 (ip), vehicle: water): 165 % of control
- T/C (dose: 1.0 mg/kg/injection, schedule: Q03HX024 (oral), vehicle: water): 94 % of control and 103 % of control
- T/C (dose: 1.0 mg/kg/injection, schedule: Q03HX024 (sc), vehicle: water): 114 % of control
- T/C (dose: 1.0 mg/kg/injection, schedule: Q04DX003 (iv), vehicle: water): 102 % of control
- T/C (dose: 1.56 mg/kg/injection, schedule: Q01DX009 (ip), vehicle: saline): 114 % of control
- T/C (dose: 2.0 mg/kg/injection, schedule: Q01DX001 (ip), vehicle: water): 106 % of control
- T/C (dose: 2.0 mg/kg/injection, schedule: Q01DX002 (ip), vehicle: water): 110 % of control
- T/C (dose: 2.0 mg/kg/injection, schedule: Q01DX005 (iv), vehicle: water): 115 % of control and 116 % of control
- T/C (dose: 2.0 mg/kg/injection, schedule: Q01DX009 (ip), vehicle: water): 151 % of control and 157 % of control and 205 % of control
- T/C (dose: 2.0 mg/kg/injection, schedule: Q01DX009 (oral), vehicle: water): 107 % of control
- T/C (dose: 2.0 mg/kg/injection, schedule: Q03HX008 (ip), vehicle: water): 155 % of control and 170 % of control
- T/C (dose: 2.0 mg/kg/injection, schedule: Q03HX016 (ip), vehicle: water): 158 % of control and 216 % of control
- T/C (dose: 2.0 mg/kg/injection, schedule: Q03HX024 (ip), vehicle: water): 225 % of control and 236 % of control
- T/C (dose: 2.0 mg/kg/injection, schedule: Q03HX024 (oral), vehicle: water): 102 % of control and 103 % of control
- T/C (dose: 2.0 mg/kg/injection, schedule: Q03HX024 (sc), vehicle: water): 180 % of control
- T/C (dose: 2.0 mg/kg/injection, schedule: Q04DX003 (ip), vehicle: water): 105 % of control
- T/C (dose: 2.0 mg/kg/injection, schedule: Q04DX003 (iv), vehicle: water): 104 % of control
- T/C (dose: 4.0 mg/kg/injection, schedule: Q01DX001 (ip), vehicle: water): 116 % of control
- T/C (dose: 4.0 mg/kg/injection, schedule: Q01DX002 (ip), vehicle: water): 117 % of control
- T/C (dose: 4.0 mg/kg/injection, schedule: Q01DX009 (ip), vehicle: water): 243 % of control and 248 % of control and 456 % of control
- T/C (dose: 4.0 mg/kg/injection, schedule: Q01DX009 (oral), vehicle: water): 106 % of control
- T/C (dose: 4.0 mg/kg/injection, schedule: Q01DX009 (sc), vehicle: water): 214 % of control
- T/C (dose: 4.0 mg/kg/injection, schedule: Q03HX008 (ip), vehicle: water): 165 % of control and 252 % of control
- T/C (dose: 4.0 mg/kg/injection, schedule: Q03HX016 (ip), vehicle: water): 178 % of control and 326 % of control
- T/C (dose: 4.0 mg/kg/injection, schedule: Q03HX024 (ip), vehicle: water): 233 % of control and 329 % of control
- T/C (dose: 4.0 mg/kg/injection, schedule: Q03HX024 (oral), vehicle: water): 100 % of control and 110 % of control
- T/C (dose: 4.0 mg/kg/injection, schedule: Q03HX024 (sc), vehicle: water): 203 % of control
- T/C (dose: 4.0 mg/kg/injection, schedule: Q04DX003 (ip), vehicle: water): 120 % of control
- T/C (dose: 4.0 mg/kg/injection, schedule: Q04DX003 (iv), vehicle: water): 102 % of control
- T/C (dose: 6.25 mg/kg/injection, schedule: Q01DX009 (ip), vehicle: saline): 161 % of control
- T/C (dose: 8.0 mg/kg/injection, schedule: Q01DX001 (ip), vehicle: water): 116 % of control
- T/C (dose: 8.0 mg/kg/injection, schedule: Q01DX005 (ip), vehicle: water): 256 % of control
- T/C (dose: 8.0 mg/kg/injection, schedule: Q01DX009 (ip), vehicle: water): 326 % of control and 417 % of control and 436 % of control
- T/C (dose: 8.0 mg/kg/injection, schedule: Q01DX009 (oral), vehicle: water): 98 % of control and 103 % of control and 111 % of control
- T/C (dose: 8.0 mg/kg/injection, schedule: Q01DX009 (sc), vehicle: water): 195 % of control
- T/C (dose: 8.0 mg/kg/injection, schedule: Q03HX008 (ip), vehicle: water): 178 % of control
- T/C (dose: 8.0 mg/kg/injection, schedule: Q03HX024 (ip), vehicle: water): 153 % of control
- T/C (dose: 8.0 mg/kg/injection, schedule: Q03HX024 (oral), vehicle: water): 100 % of control
- T/C (dose: 8.0 mg/kg/injection, schedule: Q03HX024 (sc), vehicle: water): 163 % of control
- T/C (dose: 8.0 mg/kg/injection, schedule: Q04DX003 (ip), vehicle: water): 150 % of control
- T/C (dose: 10.0 mg/kg/injection, schedule: Q01DX009 (oral), vehicle: saline with Tween-80): 100 % of control
- T/C (dose: 12.5 mg/kg/injection, schedule: Q01DX009 (ip), vehicle: saline): 231 % of control
- T/C (dose: 16.0 mg/kg/injection, schedule: Q01DX001 (ip), vehicle: water): 161 % of control
- T/C (dose: 16.0 mg/kg/injection, schedule: Q01DX002 (ip), vehicle: water): 155 % of control
- T/C (dose: 16.0 mg/kg/injection, schedule: Q01DX005 (ip), vehicle: water): 225 % of control
- T/C (dose: 16.0 mg/kg/injection, schedule: Q01DX009 (ip), vehicle: water): 382 % of control
- T/C (dose: 16.0 mg/kg/injection, schedule: Q01DX009 (oral), vehicle: water): 98 % of control and 103 % of control
- T/C (dose: 16.0 mg/kg/injection, schedule: Q01DX009 (sc), vehicle: water): 230 % of control
- T/C (dose: 16.0 mg/kg/injection, schedule: Q04DX003 (ip), vehicle: water): 167 % of control and 168 % of control and 190 % of control
- T/C (dose: 16.0 mg/kg/injection, schedule: Q08DX002 (ip), vehicle: water): 171 % of control
- T/C (dose: 20.0 mg/kg/injection, schedule: Q01DX009 (oral), vehicle: saline with Tween-80): 104 % of control
- T/C (dose: 25.0 mg/kg/injection, schedule: Q01DX001 (ip), vehicle: saline): 108 % of control
- T/C (dose: 25.0 mg/kg/injection, schedule: Q01DX009 (ip), vehicle: saline): 364 % of control
- T/C (dose: 32.0 mg/kg/injection, schedule: Q01DX009 (oral), vehicle: water): 100 % of control
- T/C (dose: 50.0 mg/kg/injection, schedule: Q01DX001 (ip), vehicle: saline): 161 % of control
- T/C (dose: 50.0 mg/kg/injection, schedule: Q01DX009 (ip), vehicle: saline): 331 % of control
- T/C (dose: 64.0 mg/kg/injection, schedule: Q01DX009 (oral), vehicle: water): 106 % of control and 109 % of control
- T/C (dose: 80.0 mg/kg/injection, schedule: Q01DX009 (oral), vehicle: saline with Tween-80): 106 % of control
- T/C (dose: 160.0 mg/kg/injection, schedule: Q01DX009 (oral), vehicle: saline with Tween-80): 101 % of control
- T/C [1]: 257 % of control

Compound: COC(=O)c1cc(NS(=O)(=O)c2ccc(N)cc2)cc(C(=O)OC)c1
- T/C (dose: 100.0 mg/kg/injection, schedule: Q01DX001 (ip), vehicle: saline): 93 % of control
- T/C [1]: 95 % of control
- T/C (dose: 400.0 mg/kg/injection, schedule: Q01DX001 (ip), vehicle: saline): 97 % of control
